The test system of one assay is impotentia erectionis. As to conditions: buccal, 100 I.U. three times a day for 14 days; cited from earlier work.
The next assay deals with male erectile ability. In words: Single blind trial of rapidly dissolving oral formulation on male erectile ability. The settings on record: 40 mg dose. In kind it is in vivo, human. On the procedure:
In order to test the ability of a rapidly dissolving oral formulation of phentolamine mesylate on erectile ability, a single blind trial was conducted.
All patients had impotence of organic etiology. Patients were selected for inclusion in the trial based medical history and physical examination with a duration of impotence of less than 3-4 years. Each patient was given two tablets: a rapidly dissolving tablet containing 40 mg of phentolamine mesylate (see Table 1), and a placebo tablet lacking phentolamine mesylate.
Patients were asked to take one tablet 20 to 30 minutes before attempting coitus. One or more days after using the first tablet, the patients repeated the process with the second tablet.
Patients were advised not to consume alcohol prior to using the tablets and were told not to expect erection without sexual stimulation. […] Patients were also asked to report side effects.

Structures can show the parent of a compound that is named as a salt.

As to `CC[C@H](C)[C@@H]1NC(=O)[C@H](Cc2ccc(O)cc2)NC(=O)[C@@H](N)CSSC[C@@H](C(=O)N2CCC[C@H]2C(=O)N[C@@H](CC(C)C)C(=O)NCC(N)=O)NC(=O)[C@H](CC(N)=O)NC(=O)[C@H](CCC(N)=O)NC1=O` [oxytocin], the “Patients with improvement of impotentia erectionis” value in the assay on impotentia erectionis is given as 12 of the 16.

In the case of `Cc1ccc(N(CC2=NCCN2)c2cccc(O)c2)cc1` [phentolamine mesylate], the “Success in improving erectile ability” value in the assay with male erectile ability was “significant success”.

The record behind these values is patent publication US6124337A, “Methods and formulations for modulating the human sexual response” (priority 1999, dated 2000).
